According to paper PMC10680098 (Nature, 2023):

Columns and labels:
[1] = system: CFTR, cystic fibrosis transmembrane conductance regulator; assay: CFTR rescue activity; format: cell-based; details: result given in words only; RC50 value is in Fig. 4b, which could not be read
[2] = in vitro intrinsic clearance; format: in vitro ADME; details: metabolic stability, details in SI
[3] = solubility at different pH values; format: physicochemical; details: at all measured pH values

Compound | activity (half-maximal rescue concentration, RC50) [1] | in vitro intrinsic clearance (CLint) [2] [μL/min/10^6 cells] | in vitro intrinsic clearance (CLint) ([2]; listed as Cuba-Lumacaftor) [μL/min/10^6 cells] | solubility compared to the parent benzene-containing drug [3]
Cc1ccc(NC(=O)C2(c3ccc4c(c3)OC(F)(F)O4)CC2)nc1C12C3C4C5C3C1C5(C(=O)O)C42 (stereo not drawn) [compound 56, Cuba-Lumacaftor] | high activity | < 7 | 6.98 | improved solubility
Cc1ccc(NC(=O)C2(c3ccc4c(c3)OC(F)(F)O4)CC2)nc1-c1cccc(C(=O)O)c1 [compound 57, reference compound] | – | 11.96 | – | –
CCN(CC)CCNC(=O)C12C3C4C1C1C2C3C41NC(C)=O (stereo not drawn) [compound 58, Cuba-Acecainide] | – | < 7 | – | –
